Data from ChEMBL document CHEMBL2424617, “Microwave-assisted synthesis and anticonvulsant activity of 5,6-bisaryl-1,2,4-triazine-3-thiol derivatives” (Med Chem Res, 2013).
Activity calls are given as the source filed them. The calls are words filed in the database; no cut-off is given here.

Tests used:
Mus musculus [1] = assay: Anticonvulsant activity in NMRI mouse assessed as […] of PTZ required to induce seizure at 100 mg/kg, ip after 30 mins (reference value: 31.5 +/- 4.4 mg/kg); format: functional
Mus musculus [2] = assay: Neurotoxicity in NMRI mouse assessed as impairment of motor coordination at 100 mg/kg after 30 mins by chimney test; format: toxicity, organism-based; design: dose 100 mg/kg; settings: in vivo, 0.5 h
Mus musculus [3] = assay: Neurotoxicity in NMRI mouse assessed as impairment of motor coordination at 100 mg/kg after 30 mins by rotarod test; format: toxicity, organism-based; design: dose 100 mg/kg; settings: in vivo, 0.5 h
Mus musculus [4] = assay: Anticonvulsant activity in NMRI mouse assessed as […] of PTZ required to induce seizure at 12.5 mg/kg, ip after 30 mins (reference value: 31.5 +/- 4.4 mg/kg); format: functional
Mus musculus [5] = assay: Neurotoxicity in NMRI mouse assessed as impairment of motor coordination at 12.5 mg/kg, ip after 30 mins by chimney test; format: toxicity, organism-based; design: dose 12.5 mg/kg, route intraperitoneal; settings: in vivo, 0.5 h
Mus musculus [6] = assay: Neurotoxicity in NMRI mouse assessed as impairment of motor coordination at 12.5 mg/kg, ip after 30 mins by rotarod test; format: toxicity, organism-based; design: dose 12.5 mg/kg, route intraperitoneal; settings: in vivo, 0.5 h
Mus musculus [7] = assay: Anticonvulsant activity in NMRI mouse assessed as protection against electroshock-induced seizure at 12.5 mg/kg, ip after 30 mins; format: functional; settings: route intraperitoneal
Mus musculus [8] = assay: Anticonvulsant activity in NMRI mouse assessed as protection against electroshock-induced seizure at 100 mg/kg after 30 mins; format: functional

For CSc1nnc(-c2cccs2)c(-c2cccs2)n1, the Activity (Mus musculus [1]) was 38.23 mg/kg, the Activity (Mus musculus [2]) was “Non-toxic” and the Activity (Mus musculus [3]) was “Non-toxic”.
With Cc1ccc(-c2nnc(S)nc2-c2ccc(C)cc2)cc1 the Activity (Mus musculus [1]) was 40.4 mg/kg and the Activity (Mus musculus [2]) was “Non-toxic”.
With Clc1ccc(-c2nnc(SCc3ccncc3)nc2-c2ccc(Cl)cc2)cc1 the Activity (Mus musculus [1]) was 43 mg/kg and the Activity (Mus musculus [2]) was “Non-toxic”.
Cc1ccc(-c2nnc(SCc3cccnc3)nc2-c2ccc(C)cc2)cc1 was tested, and the Activity (Mus musculus [1]) was 47 mg/kg, the Activity (Mus musculus [2]) was “Non-toxic” and the Activity (Mus musculus [3]) was “Non-toxic”.
In the case of Nc1nnc(-c2cccc(Cl)c2Cl)c(N)n1 [LAMOTRIGINE], the Activity (Mus musculus [4]) is reported as 72.9 mg/kg, the Activity (Mus musculus [5]) is reported as “Non-toxic” and the Activity (Mus musculus [6]) is reported as “Non-toxic”. For the same compound, the Activity (Mus musculus [7]) was 100%.
COc1ccc(-c2nnc(SCc3cccnc3)nc2-c2ccc(OC)cc2)cc1 was tested, and the Activity (Mus musculus [1]) was 41.5 mg/kg, the Activity (Mus musculus [2]) was “Non-toxic” and the Activity (Mus musculus [3]) was “Non-toxic”.
Sc1nnc(-c2cccs2)c(-c2cccs2)n1 was tested, and the Activity (Mus musculus [1]) was 24.42 mg/kg, the Activity (Mus musculus [2]) was “Non-toxic” and the Activity (Mus musculus [3]) was “Non-toxic”.
With COc1ccc(-c2nnc(SC)nc2-c2ccc(OC)cc2)cc1 the Activity (Mus musculus [1]) was 41.4 mg/kg, the Activity (Mus musculus [2]) was “Non-toxic” and the Activity (Mus musculus [3]) was “Non-toxic”.
For CSc1nnc(-c2ccc(F)cc2)c(-c2ccc(F)cc2)n1, the Activity (Mus musculus [2]) was 33% and the Activity (Mus musculus [3]) was “Non-toxic”.
With Cc1ccc(-c2nnc(SCc3ccncc3)nc2-c2ccc(C)cc2)cc1 the Activity (Mus musculus [1]) was 49.4 mg/kg, the Activity (Mus musculus [2]) was “Non-toxic” and the Activity (Mus musculus [3]) was “Non-toxic”. For the same compound, the Activity (Mus musculus [8]) was 100%.
For CSc1nnc(-c2ccc(C)cc2)c(-c2ccc(C)cc2)n1, the Activity (Mus musculus [1]) was 39.4 mg/kg, the Activity (Mus musculus [2]) was “Non-toxic” and the Activity (Mus musculus [3]) was “Non-toxic”.
For COc1ccc(-c2nnc(S)nc2-c2ccc(OC)cc2)cc1, the Activity (Mus musculus [2]) was “Non-toxic”, the Activity (Mus musculus [3]) was “Non-toxic” and the Activity (Mus musculus [8]) was “inactive”.
With Sc1nnc(-c2ccc(Cl)cc2)c(-c2ccc(Cl)cc2)n1 the Activity (Mus musculus [2]) was “Non-toxic” and the Activity (Mus musculus [3]) was “Non-toxic”.
